Measured values from patent US12552825B2 (Zikani Therapeutics, Inc., priority 2019, dated 2026).
Values after ≈ are worked out from the molar mass of the structure shown.

How the values were obtained:
Type in all cases: cell-based
[1] = test system: S. aureus MP-12; assay: microbe, parasite or virus in culture; details: Staphylococcus aureus, MP12, read-out: MIC S. aureus MP-12
[2] = test system: P. aeruginosa MP-3; assay: MIC determination by CLSI broth dilution, P. aeruginosa MP-3; details: for MIC: Pseudomonas aeruginosa, MP3, strain MP-3; for MIC P aeruginosa MP-3: strain MP-3
[3] = test system: K. pneumoniae MP-648; assay: MIC determination by CLSI broth dilution, K. pneumoniae MP-648; details: strain MP-648; for MIC: Klebsiella pneumoniae, MP648, CLSI broth dilution; for MIC K. pneumoniae MP-648: CLSI broth dilution
[4] = test system: K. pneumoniae MP-546; assay: MIC determination by CLSI broth dilution, K. pneumoniae MP-546; details: strain MP-546; for MIC: Klebsiella pneumoniae, MP546, CLSI broth dilution; for MIC K. pneumoniae MP-546: CLSI broth dilution
[5] = test system: A. baumannii MP-15; assay: MIC determination by CLSI broth dilution, A. baumannii MP-15; details: for MIC: Acinetobacter baumannii, MP15, strain MP-15, read-out: MIC A. baumanii MP-15; for MIC A. baumanii MP-15: strain MP-15
[6] = test system: E. coli MP-4; assay: MIC determination by CLSI broth dilution, E. coli MP-4; details: strain MP-4; for MIC: Escherichia coli, MP4, CLSI broth dilution; for MIC E. coli MP-4: CLSI broth dilution

Compound: CCCN1CC(C[C@@H]2COC(=O)C(C)(C)C(=O)[C@H](C)[C@@H](O[C@@H]3O[C@H](C)C[C@H](N(C)C)[C@H]3O)[C@](C)(OC)C[C@@H](C)CN2C)C1 [Compound 1]
- MIC [1]: > 32 µg/mL
- MIC [2]: > 32 µg/mL
- MIC [3]: > 32 µg/mL
- MIC [4]: 4 to 32 µg/mL (≈ 6.54 to 52.3 µM)
- MIC [5]: > 32 µg/mL
- MIC [6]: < 4 µg/mL

Compound: C=C(C[C@@H]1COC(=O)C(C)(C)C(=O)[C@H](C)[C@@H](O[C@@H]2O[C@H](C)C[C@H](N(C)C)[C@H]2O)[C@](C)(OC)C[C@@H](C)CN1C)CN(CCC)CCC [Compound 2]
- MIC [1]: > 32 µg/mL
- MIC [2]: > 32 µg/mL
- MIC [3]: > 32 µg/mL
- MIC [4]: > 32 µg/mL
- MIC [5]: > 32 µg/mL
- MIC [6]: 4 to 32 µg/mL (≈ 6.12 to 48.9 µM)

Compound: CCN(C)CC[C@@H](O)[C@@H]1COC(=O)C(C)(C)C(=O)[C@H](C)[C@@H](O[C@@H]2O[C@H](C)C[C@H](N(C)C)[C@H]2O)[C@](C)(OC)C[C@@H](C)CN1C [Compound 3]
- MIC [1]: 4 to 32 µg/mL (≈ 6.5 to 52 µM)
- MIC [2]: > 32 µg/mL
- MIC [3]: < 4 µg/mL
- MIC [4]: < 4 µg/mL
- MIC [5]: > 32 µg/mL
- MIC [6]: < 4 µg/mL

Compound: CO[C@]1(C)C[C@@H](C)CN(C)[C@@H](CCCO)COC(=O)C(C)(C)C(=O)[C@H](C)[C@H]1O[C@@H]1O[C@H](C)C[C@H](N(C)C)[C@H]1O [Compound 4, (3S,6R,8R,9R,10R)-9-(((2S,3R,4S,6R)-4-(dimethylamino)-3-hydroxy-6-methyltetrahydro-2H-pyran-2-yl)oxy)-3-(3-hydroxypropyl)-8-methoxy-4,6,8,10,12,12-hexamethyl-1-oxa-4-azacyclotridecane-11,13-dione]
- MIC [1]: > 32 µg/mL
- MIC [2]: > 32 µg/mL
- MIC [3]: 4 to 32 µg/mL (≈ 7.16 to 57.3 µM)
- MIC [4]: 4 to 32 µg/mL (≈ 7.16 to 57.3 µM)
- MIC [5]: > 32 µg/mL
- MIC [6]: < 4 µg/mL

Compound: CO[C@]1(C)C[C@@H](C)CN(C)[C@@H](CCCN(C)C(C)(C)C)COC(=O)C(C)(C)C(=O)[C@H](C)[C@H]1O[C@@H]1O[C@H](C)C[C@H](N(C)C)[C@H]1O [Compound 7, (3S,6R,8R,9R,10R)-3-(3-(tert-butyl(methyl)amino)propyl)-9-(((2S,3R,4S,6R)-4-(dimethylamino)-3-hydroxy-6-methyltetrahydro-2H-pyran-2-yl)oxy)-8-methoxy-4,6,8,10,12,12-hexamethyl-1-oxa-4-azacyclotridecane-11,13-dione]
- MIC [1]: 4 to 32 µg/mL (≈ 6.37 to 51 µM)
- MIC [2]: > 32 µg/mL
- MIC [3]: < 4 µg/mL
- MIC [4]: 4 to 32 µg/mL (≈ 6.37 to 51 µM)
- MIC [5]: > 32 µg/mL
- MIC [6]: < 4 µg/mL

Compound: CO[C@]1(C)C[C@@H](C)CN(CC(C)C)[C@@H](CCCN(C)C(C)C)COC(=O)C(C)(C)C(=O)[C@H](C)[C@H]1O[C@@H]1O[C@H](C)C[C@H](N(C)C)[C@H]1O [Compound 8, (3S,6R,8R,9R,10R)-9-(((2S,3R,4S,6R)-4-(dimethylamino)-3-hydroxy-6-methyltetrahydro-2H-pyran-2-yl)oxy)-4-isobutyl-3-(3-(isopropyl(methyl)amino)propyl)-8-methoxy-6,8,10,12,12-pentamethyl-1-oxa-4-azacyclotridecane-11,13-dione]
- MIC [1]: < 4 µg/mL
- MIC [2]: > 32 µg/mL
- MIC [3]: 4 to 32 µg/mL (≈ 6.1 to 48.8 µM)
- MIC [4]: 4 to 32 µg/mL (≈ 6.1 to 48.8 µM)
- MIC [5]: > 32 µg/mL
- MIC [6]: < 4 µg/mL

Compound: CCN1C[C@H](C)C[C@@](C)(OC)[C@H](O[C@@H]2O[C@H](C)C[C@H](N(C)C)[C@H]2O)[C@@H](C)C(=O)C(C)(C)C(=O)OC[C@@H]1CCCN(C)C(C)C [Compound 10, (3S,6R,8R,9R,10R)-9-(((2S,3R,4S,6R)-4-(dimethylamino)-3-hydroxy-6-methyltetrahydro-2H-pyran-2-yl)oxy)-4-ethyl-3-(3-(isopropyl(methyl)amino)propyl)-8-methoxy-6,8,10,12,12-pentamethyl-1-oxa-4-azacyclotridecane-11,13-dione]
- MIC [1]: < 4 µg/mL
- MIC [2]: > 32 µg/mL
- MIC [3]: < 4 µg/mL
- MIC [4]: < 4 µg/mL
- MIC [5]: > 32 µg/mL
- MIC [6]: < 4 µg/mL

Compound: CO[C@]1(C)C[C@@H](C)CN(C)[C@H]([C@@H](O)C2CCN(CC3CC3)CC2)COC(=O)C(C)(C)C(=O)[C@H](C)[C@H]1O[C@@H]1O[C@H](C)C[C@H](N(C)C)[C@H]1O [Compound 28]
- MIC P aeruginosa MP-3 [2]: + (values greater than 32 mg/L)
- MIC K. pneumoniae MP-648 [3]: + (values greater than 32 mg/L)
- MIC K. pneumoniae MP-546 [4]: + (values greater than 32 mg/L)
- MIC A. baumanii MP-15 [5]: + (values greater than 32 mg/L)
- MIC E. coli MP-4 [6]: + (values greater than 32 mg/L)

Compound: CO[C@]1(C)C[C@@H](C)CN(C)[C@H](C[C@H]2C[C@H](N(C)CC(C)C)C2)COC(=O)C(C)(C)C(=O)[C@H](C)[C@H]1O[C@@H]1O[C@H](C)C[C@H](N(C)C)[C@H]1O [Compound 134, (3R,6R,8R,9R,10R)-9-(((2S,3R,4S,6R)-4-(dimethylamino)-3-hydroxy-6-methyltetrahydro-2H-pyran-2-yl)oxy)-3-(((1r,3S)-3-(isobutyl(methyl)amino)cyclobutyl)methyl)-8-methoxy-4,6,8,10,12,12-hexamethyl-1-oxa-4-azacyclotridecane-11,13-dione]
- MIC P aeruginosa MP-3 [2]: + (values greater than 32 mg/L)
- MIC K. pneumoniae MP-648 [3]: +++ (values less than or equal to 4 mg/L)
- MIC K. pneumoniae MP-546 [4]: +++ (values less than or equal to 4 mg/L)
- MIC A. baumanii MP-15 [5]: + (values greater than 32 mg/L)
- MIC E. coli MP-4 [6]: +++ (values less than or equal to 4 mg/L)

Compound: C=C(C)C[C@]1(C)C(=O)OC[C@@H](CC2CCN(CCCCCCC)CC2)N(C)C[C@H](C)C[C@@](C)(OC)[C@H](O[C@@H]2O[C@H](C)C[C@H](N(C)C)[C@H]2O)[C@@H](C)C1=O [Compound 175]
- MIC P aeruginosa MP-3 [2]: + (values greater than 32 mg/L)
- MIC K. pneumoniae MP-648 [3]: + (values greater than 32 mg/L)
- MIC K. pneumoniae MP-546 [4]: ++ (values of greater than 4 mg/L and less than or equal to 32 mg/L)
- MIC A. baumanii MP-15 [5]: + (values greater than 32 mg/L)
- MIC E. coli MP-4 [6]: +++ (values less than or equal to 4 mg/L)

Compound: CCN1C[C@H](C)C[C@@](C)(OC)[C@H](O[C@@H]2O[C@H](C)C[C@H](N(C)C)[C@H]2O)[C@@H](C)C(=O)C(C)(C)C(=O)OC[C@H]1[C@H](O)CCN(C)CCO [Compound 225]
- MIC [1]: 4 to 32 µg/mL (≈ 6.19 to 49.5 µM)
- MIC [2]: > 32 µg/mL
- MIC [3]: 4 to 32 µg/mL (≈ 6.19 to 49.5 µM)
- MIC [5]: > 32 µg/mL
- MIC [6]: < 4 µg/mL

Compound: CCN1C[C@H](C)C[C@@](C)(OC)[C@H](O[C@@H]2O[C@H](C)C[C@H](N(C)C)[C@H]2O)[C@@H](C)C(=O)C(C)(C)C(=O)OC[C@H]1[C@H](O)CCN(C1CC1)C1Cc2ccccc2C1 [Compound 226]
- MIC [1]: 4 to 32 µg/mL (≈ 5.38 to 43 µM)
- MIC [2]: > 32 µg/mL
- MIC [3]: 4 to 32 µg/mL (≈ 5.38 to 43 µM)
- MIC [5]: > 32 µg/mL
- MIC [6]: < 4 µg/mL

Compound: CO[C@]1(C)C[C@@H](C)CN(C)[C@H]([C@](C)(O)CCN2CCCC2)COC(=O)C(C)(C)C(=O)[C@H](C)[C@H]1O[C@@H]1O[C@H](C)C[C@H](N(C)C)[C@H]1O [Compound 227]
- MIC [1]: 4 to 32 µg/mL (≈ 6.23 to 49.9 µM)
- MIC [2]: > 32 µg/mL
- MIC [3]: > 32 µg/mL
- MIC [5]: > 32 µg/mL
- MIC [6]: 4 to 32 µg/mL (≈ 6.23 to 49.9 µM)

Compound: CO[C@]1(C)C[C@@H](C)CN(C)[C@H]([C@](C)(O)CCN(C)CCO)COC(=O)C(C)(C)C(=O)[C@H](C)[C@H]1O[C@@H]1O[C@H](C)C[C@H](N(C)C)[C@H]1O [Compound 228]
- MIC [1]: > 32 µg/mL
- MIC [2]: > 32 µg/mL
- MIC [3]: < 4 µg/mL
- MIC [5]: > 32 µg/mL
- MIC [6]: 4 to 32 µg/mL (≈ 6.19 to 49.5 µM)

Compound: CCCN(CCC)CC[C@@](C)(O)[C@@H]1COC(=O)C(C)(C)C(=O)[C@H](C)[C@@H](O[C@@H]2O[C@H](C)C[C@H](N(C)C)[C@H]2O)[C@](C)(OC)C[C@@H](C)CN1C [Compound 229]
- MIC [1]: 4 to 32 µg/mL (≈ 5.95 to 47.6 µM)
- MIC [2]: > 32 µg/mL
- MIC [3]: > 32 µg/mL
- MIC [5]: > 32 µg/mL
- MIC [6]: 4 to 32 µg/mL (≈ 5.95 to 47.6 µM)
